From patent publication US11026426B2, “Oxadiazole and phenol derivatives as antibacterial and/or herbicidal agents” (NORTHERN ILLINOIS RESEARCH FOUNDATION, priority 2017, dated 2021)
Like-named read-outs stand apart in the source and are kept apart here.

What was measured:
Type in all cases: cell-based
Corynebacterium xerosis = assay: Antibacterial assay zone of inhibition Cx
[1] = system: Corynebacterium pseudodiphtheriae; assay: Antibacterial assay zone of inhibition Cp
[2] = system: Burkholderia thailandensis
Bacillus cereus = assay: Antibacterial assay zone of inhibition Bc
Pseudomonas aeruginosa = assay: Antibacterial assay zone of inhibition Pa
Mycobacterium smegmatis = assay: Antibacterial assay zone of inhibition Ms
Micrococcus luteus = assay: Antibacterial assay zone of inhibition Ml
Escherichia coli = assay: Antibacterial assay zone of inhibition Ec
Klebsiella pneumonia = assay: Antibacterial assay zone of inhibition Kp

Structure (SMILES)	Antibacterial Cx zone of inhibition (Corynebacterium xerosis; 0.1 mM)	Antibacterial Cx zone of inhibition (Corynebacterium xerosis; 0.5 mM)	Antibacterial Cx zone of inhibition (Corynebacterium xerosis; 1 mM)	Antibacterial Cp zone of inhibition ([1]; 0.1 mM)	Antibacterial Cp zone of inhibition ([1]; 0.5 mM)	Antibacterial Cp zone of inhibition ([1]; 1 mM)	Antibacterial Bc zone of inhibition (Bacillus cereus; 0.1 mM)	Antibacterial Bc zone of inhibition (Bacillus cereus; 0.5 mM)	Antibacterial Bc zone of inhibition (Bacillus cereus; 1 mM)	Antibacterial Pa zone of inhibition (Pseudomonas aeruginosa; 0.1 mM)	Antibacterial Pa zone of inhibition (Pseudomonas aeruginosa; 0.5 mM)	Antibacterial Pa zone of inhibition (Pseudomonas aeruginosa; 1 mM)	Antibacterial Ms zone of inhibition (Mycobacterium smegmatis; 0.1 mM)	Antibacterial Ms zone of inhibition (Mycobacterium smegmatis; 0.5 mM)	Antibacterial Ms zone of inhibition (Mycobacterium smegmatis; 1 mM)	Antibacterial Ml zone of inhibition (Micrococcus luteus; 0.1 mM)	Antibacterial Ml zone of inhibition (Micrococcus luteus; 0.5 mM)	Antibacterial Ml zone of inhibition (Micrococcus luteus; 1 mM)	Antibacterial Ec zone of inhibition (Escherichia coli; 0.1 mM)	Antibacterial Ec zone of inhibition (Escherichia coli; 0.5 mM)	further results
c1ccc(OCc2nnc(-c3cc4ccccc4[nH]3)o2)cc1 [HGN-811]	0 millimeters	0 millimeters	0 millimeters	0 millimeters	0 millimeters	0 millimeters	0 millimeters	12.5 millimeters	16 millimeters	0 millimeters	0 millimeters	0 millimeters	0 millimeters	0 millimeters	0 millimeters	0 millimeters	0 millimeters	0 millimeters	0 millimeters	0 millimeters	Antibacterial Bt zone of inhibition [2]: 0 8 12 millimeters; Antibacterial Ec zone of inhibition (Escherichia coli; 1 mM): 0 millimeters; Antibacterial Kp zone of inhibition (Klebsiella pneumonia; 0.1 mM): 0 millimeters; Antibacterial Kp zone of inhibition (Klebsiella pneumonia; 0.5 mM): 0 millimeters; Antibacterial Kp zone of inhibition (Klebsiella pneumonia; 1 mM): 0 millimeters
Clc1ccc(CCc2nnc(-c3nc4ccccc4s3)o2)c(Cl)c1 [HGN-824]	0 millimeters	0 millimeters	0 millimeters	0 millimeters	0 millimeters	10 millimeters	0 millimeters	0 millimeters	0 millimeters	0 millimeters	0 millimeters	0 millimeters	0 millimeters	12 millimeters	18 millimeters	0 millimeters	0 millimeters	0 millimeters	0 millimeters	0 millimeters	Antibacterial Bt zone of inhibition ([2]; 0.1 mM): 0 millimeters; Antibacterial Bt zone of inhibition ([2]; 0.5 mM): 0 millimeters; Antibacterial Bt zone of inhibition ([2]; 1 mM): 0 millimeters; Antibacterial Ec zone of inhibition (Escherichia coli; 1 mM): 0 millimeters; Antibacterial Kp zone of inhibition (Klebsiella pneumonia; 0.1 mM): 0 millimeters; Antibacterial Kp zone of inhibition (Klebsiella pneumonia; 0.5 mM): 0 millimeters; Antibacterial Kp zone of inhibition (Klebsiella pneumonia; 1 mM): 0 millimeters
Cc1ccc(OCc2nnc(-c3nc4ccccc4s3)o2)cc1 [HGN-825]	0 millimeters	0 millimeters	0 millimeters	0 millimeters	0 millimeters	0 millimeters	0 millimeters	0 millimeters	11.5 millimeters	0 millimeters	0 millimeters	0 millimeters	0 millimeters	13 millimeters	18 millimeters	0 millimeters	0 millimeters	11 millimeters	0 millimeters	0 millimeters	Antibacterial Bt zone of inhibition [2]: 0 millimeters; Antibacterial Ec zone of inhibition (Escherichia coli; 1 mM): 0 millimeters; Antibacterial Kp zone of inhibition (Klebsiella pneumonia; 0.1 mM): 0 millimeters; Antibacterial Kp zone of inhibition (Klebsiella pneumonia; 0.5 mM): 0 millimeters; Antibacterial Kp zone of inhibition (Klebsiella pneumonia; 1 mM): 0 millimeters
Clc1ccc(OCc2nnc(-c3nc4ccccc4s3)o2)cc1 [HGN-826]	0 millimeters	0 millimeters	0 millimeters	0 millimeters	0 millimeters	0 millimeters	0 millimeters	0 millimeters	12 millimeters	0 millimeters	0 millimeters	0 millimeters	0 millimeters	13 millimeters	20 millimeters	0 millimeters	0 millimeters	0 millimeters	0 millimeters	0 millimeters	Antibacterial Bt zone of inhibition ([2]; 0.1 mM): 0 millimeters; Antibacterial Bt zone of inhibition ([2]; 0.5 mM): 0 millimeters; Antibacterial Bt zone of inhibition ([2]; 1 mM): 0 millimeters; Antibacterial Ec zone of inhibition (Escherichia coli; 1 mM): 0 millimeters; Antibacterial Kp zone of inhibition (Klebsiella pneumonia; 0.1 mM): 0 millimeters; Antibacterial Kp zone of inhibition (Klebsiella pneumonia; 0.5 mM): 0 millimeters; Antibacterial Kp zone of inhibition (Klebsiella pneumonia; 1 mM): 0 millimeters
